This passage reports IC50 results from US12011444B2, “N-substituted indole derivatives as PGE2 receptor modulators” (Idorsia Pharmaceuticals Ltd, priority 2015, dated 2024).

For one experiment, the target named is PTGER2 (EP2) (Homo sapiens (Human), UniProt P43116). The experiment in a line: hEP2 b-arrestin assay (PathHunter HEK 293 PTGER2 b-arrestin cells). In kind it is cell-based. The note with it: antagonistic activity on hEP2; mean where measured multiple times. The method in brief: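 HEK293 cells expressing ProLink-tagged EP2 and EA-fused β-arrestin 2 (enzyme fragment complementation) were seeded 24 h, pre-incubated with compound 15 min at 37 °C, then stimulated with 5 μM PGE2 (final) for 120 min.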
PTGER2 (EP2), sequence (P43116 whole entry, the tested form may be a part): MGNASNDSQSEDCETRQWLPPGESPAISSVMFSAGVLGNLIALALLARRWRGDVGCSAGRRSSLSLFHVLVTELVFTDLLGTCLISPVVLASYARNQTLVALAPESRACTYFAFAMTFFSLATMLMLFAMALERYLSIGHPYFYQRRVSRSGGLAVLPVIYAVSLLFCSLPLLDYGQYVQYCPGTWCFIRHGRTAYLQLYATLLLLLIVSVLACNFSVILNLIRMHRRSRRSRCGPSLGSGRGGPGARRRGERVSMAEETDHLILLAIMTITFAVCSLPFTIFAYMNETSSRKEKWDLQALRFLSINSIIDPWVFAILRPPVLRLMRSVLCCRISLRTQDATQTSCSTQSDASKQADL

The next experiment deals with PTRGER4 (EP4) (Homo sapiens (Human), UniProt P35408). The experiment in a line: hEP4 b-arrestin assay (PathHunter HEK 293 PTGER4 b-arrestin cells). It counts as cell-based. The note with it: antagonistic activity on hEP4; mean where measured multiple times. In short, it runs like this: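 Stably transfected HEK293 cells carrying EP4–ProLink and β-arrestin 2–EA (β-gal fragment complementation), pre-incubated with compound 15 min at 37 °C, then stimulated with PGE2 (20 nM final) for 120 min at 37 °C. Chemiluminescence read after 1 h detection reagent at room temperature; activity per concentration expressed as percent of DMSO control.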
PTRGER4 (EP4), sequence (P35408 whole entry, looked up, the tested form may be a part): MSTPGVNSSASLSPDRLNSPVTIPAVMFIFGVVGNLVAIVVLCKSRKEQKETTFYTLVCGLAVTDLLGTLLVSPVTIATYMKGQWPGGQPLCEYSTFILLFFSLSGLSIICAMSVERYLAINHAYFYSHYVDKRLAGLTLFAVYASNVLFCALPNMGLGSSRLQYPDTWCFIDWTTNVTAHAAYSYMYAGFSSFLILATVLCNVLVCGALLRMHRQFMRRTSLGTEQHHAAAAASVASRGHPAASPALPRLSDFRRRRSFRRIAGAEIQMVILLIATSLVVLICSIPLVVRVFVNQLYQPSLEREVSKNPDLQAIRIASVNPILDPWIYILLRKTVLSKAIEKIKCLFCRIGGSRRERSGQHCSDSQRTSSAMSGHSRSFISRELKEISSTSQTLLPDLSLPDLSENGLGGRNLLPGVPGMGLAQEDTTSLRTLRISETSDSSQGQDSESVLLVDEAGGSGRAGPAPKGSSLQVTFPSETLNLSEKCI

In general, IC50 refers to the point on the concentration scale where inhibition reaches its midpoint. Regarding `COc1cccc2c1cc(C)n2CCNc1cc(-c2ccc3c(c2)CCN3)ncn1` [compound 12, [6-(2,3-Dihydro-1H-indol-5-yl)-pyrimidin-4-yl]-[2-(4-methoxy-2-methyl-indol-1-yl)-ethyl]-amine], the IC50 against PTGER2 (EP2) came out at 11 nM; against PTRGER4 (EP4) it was 144 nM.

`COc1cccc2c1cc(C)n2CCNc1cc(-c2ccc(CO)c(C)c2)ncn1` [compound 13, (4-{6-[2-(4-Methoxy-2-methyl-indol-1-yl)-ethylamino]-pyrimidin-4-yl}-2-methyl-phenyl)-methanol]: the results for the IC50 against PTGER2 (EP2) and against PTRGER4 (EP4) were 14 nM and 428 nM, respectively.

Regarding `Cc1cc2c(Cl)ccc(F)c2n1CCNc1cc(-c2cc(Cl)c(C(=O)O)s2)ncn1` [compound 14, 3-Chloro-5-{6-[2-(4-chloro-7-fluoro-2-methyl-indol-1-yl)-ethylamino]-pyrimidin-4-yl}-thiophene-2-carboxylic acid], the IC50 worked out at 4 nM on PTGER2 (EP2) and 82 nM against PTRGER4 (EP4).

For `Cc1ccc(F)c2c1cc(C)n2CCNc1cc(-c2ccc(C(=O)O)cc2)ncn1` [compound 15, 4-{6-[2-(7-Fluoro-2,4-dimethyl-indol-1-yl)-ethylamino]-pyrimidin-4-yl}-benzoic acid], the IC50 at PTGER2 (EP2) was 62 nM; on PTRGER4 (EP4) it was 542 nM.

In the case of `COc1cccc2c1cc(C)n2CCNc1cc(-c2ccc(CO)c(Cl)c2)ncn1` [compound 16, (2-Chloro-4-{6-[2-(4-methoxy-2-methyl-indol-1-yl)-ethylamino]-pyrimidin-4-yl}-phenyl)-methanol], the IC50 against PTGER2 (EP2) turned out to be 9 nM; at PTRGER4 (EP4) it was 202 nM.

Regarding `COc1cccc2c1cc(C)n2CCNc1cc(-c2ccc(CO)c(F)c2)ncn1` [compound 17, (2-Fluoro-4-{6-[2-(4-methoxy-2-methyl-indol-1-yl)-ethylamino]-pyrimidin-4-yl}-phenyl)-methanol], the concentration for half-maximal inhibition (IC50) came out at 12 nM against PTGER2 (EP2) and 174 nM at PTRGER4 (EP4).

For the compound `Cc1ccc(F)c2c1cc(C)n2CCNc1cc(-c2cc(Cl)c(C(=O)O)s2)ncn1` [compound 18, 3-Chloro-5-{6-[2-(7-fluoro-2,4-dimethyl-indol-1-yl)-ethylamino]-pyrimidin-4-yl}-thiophene-2-carboxylic acid], the values for the concentration for half-maximal inhibition (IC50) on PTGER2 (EP2) and against PTRGER4 (EP4) were 27 nM and 123 nM, respectively.

Consider `Cc1cc(F)cc2c1cc(C)n2CCNc1cc(-c2cc(Cl)c(C(=O)O)s2)ncn1` [compound 19, 3-Chloro-5-{6-[2-(6-fluoro-2,4-dimethyl-indol-1-yl)-ethylamino]-pyrimidin-4-yl}-thiophene-2-carboxylic acid], for which the IC50 against PTGER2 (EP2) came out at 17 nM; against PTRGER4 (EP4), 99 nM.

For the compound `Cc1ccc(F)c2c1cc(C)n2CCNc1cc(-c2ccc(CO)c(Cl)c2)ncn1` [compound 20], the half-maximal inhibitory concentration (IC50) was 94 nM at PTGER2 (EP2) and 328 nM on PTRGER4 (EP4).

Turning to `Cc1ccc(F)c2c1cc(C)n2CCNc1cc(-c2ccc(CO)c(F)c2)ncn1` [compound 21, (2-Fluoro-4-{6-[2-(7-fluoro-2,4-dimethyl-indol-1-yl)-ethylamino]-pyrimidin-4-yl}-phenyl)-methanol], the concentration for half-maximal inhibition (IC50) against PTGER2 (EP2) came to 42 nM; at PTRGER4 (EP4), 287 nM.

Consider `Cc1cc(-c2cc(NCCn3c(C)cc4c(C)ccc(F)c43)ncn2)ccc1CO` [compound 22], for which the IC50 at PTGER2 (EP2) is 78 nM; on PTRGER4 (EP4), 369 nM.

As for `COc1cccc2c1cc(C)n2CCNc1cc(-c2cc(Cl)c(C(=O)O)s2)ncn1` [compound 23, 3-Chloro-5-{6-[2-(4-methoxy-2-methyl-indol-1-yl)-ethylamino]-pyrimidin-4-yl}-thiophene-2-carboxylic acid], the IC50 on PTGER2 (EP2) was 3 nM; against PTRGER4 (EP4) it was 143 nM.

Turning to `COc1cccc2c1cc(C)n2CCNc1cc(-c2ccc(CN)c(F)c2)ncn1` [compound 24], the IC50 turned out to be 94 nM on PTGER2 (EP2) and 895 nM against PTRGER4 (EP4).

Regarding `Cc1ccc(F)c2c1cc(C)n2CCNc1cc(-c2ccc(C(N)=O)cc2)ncn1` [compound 25, 4-{6-[2-(7-Fluoro-2,4-dimethyl-indol-1-yl)-ethylamino]-pyrimidin-4-yl}-benzamide], the IC50 on PTGER2 (EP2) amounted to 27 nM; on PTRGER4 (EP4) it was 616 nM.

Consider `CCc1cc(-c2cc(NCCn3c(C)cc4c(C)cccc43)ncn2)ccc1C(=O)O` [compound 26, 4-{6-[2-(2,4-Dimethyl-indol-1-yl)-ethylamino]-pyrimidin-4-yl}-2-ethyl-benzoic acid], for which the IC50 on PTGER2 (EP2) is 9 nM; against PTRGER4 (EP4), 975 nM.

As to `COc1ccc(F)c2c1cc(C)n2CCNc1cc(-c2ccc(CO)c(Cl)c2)ncn1` [compound 27, (2-Chloro-4-{6-[2-(7-fluoro-4-methoxy-2-methyl-indol-1-yl)-ethylamino]-pyrimidin-4-yl}-phenyl)-methanol], the IC50 at PTGER2 (EP2) was found to be 10 nM; against PTRGER4 (EP4) it was 90 nM.

For the compound `COc1ccc(F)c2c1cc(C)n2CCNc1cc(-c2ccc(CO)c(F)c2)ncn1` [compound 28, (2-Fluoro-4-{6-[2-(7-fluoro-4-methoxy-2-methyl-indol-1-yl)-ethylamino]-pyrimidin-4-yl}-phenyl)-methanol], the IC50 on PTGER2 (EP2) was determined as 17 nM; on PTRGER4 (EP4) it was 249 nM.

Consider `Cc1ccc(F)c2c1cc(C)n2CCNc1cc(-c2ccc(C(=O)O)c(Cl)c2)ncn1` [compound 29, 2-Chloro-4-{6-[2-(7-fluoro-2,4-dimethyl-indol-1-yl)-ethylamino]-pyrimidin-4-yl}-benzoic acid], for which the values for the IC50 on PTGER2 (EP2) and at PTRGER4 (EP4) were 18 nM and 575 nM, respectively.

Regarding `COc1cc(-c2cc(NCCn3c(C)cc4c(C)ccc(F)c43)ncn2)ccc1CO` [compound 30, (4-{6-[2-(7-Fluoro-2,4-dimethyl-indol-1-yl)-ethylamino]-pyrimidin-4-yl}-2-methoxy-phenyl)-methanol], the results for the IC50 at PTGER2 (EP2) and against PTRGER4 (EP4) were 34 nM and 243 nM, respectively.

As to `Cc1cc(-c2cc(NCCn3c(C)cc4c(C)ccc(F)c43)ncn2)ccc1C(=O)O` [compound 31, 4-{6-[2-(7-Fluoro-2,4-dimethyl-indol-1-yl)-ethylamino]-pyrimidin-4-yl}-2-methyl-benzoic acid], the IC50 against PTGER2 (EP2) amounted to 24 nM; against PTRGER4 (EP4), 543 nM.

`COc1ccc(F)c2c1cc(C)n2CCNc1cc(-c2ccc(CO)c(C)c2)ncn1` [compound 32, (4-{6-[2-(7-Fluoro-4-methoxy-2-methyl-indol-1-yl)-ethylamino]-pyrimidin-4-yl}-2-methyl-phenyl)-methanol]: the IC50 amounted to 26 nM at PTGER2 (EP2) and 162 nM at PTRGER4 (EP4).

Take `CCSc1cc(-c2cc(NCCn3c(C)cc4ccccc43)ncn2)ccc1C(=O)O` [compound 33, 2-Ethylsulfanyl-4-{6-[2-(2-methyl-indol-1-yl)-ethylamino]-pyrimidin-4-yl}-benzoic acid]: the results for the IC50 on PTGER2 (EP2) and against PTRGER4 (EP4) were 3 nM and 678 nM, respectively.

Take `COc1cc(-c2cc(NCCn3c(C)cc4c(C)cccc43)ncn2)ccc1C(=O)O` [compound 35, 4-{6-[2-(2,4-Dimethyl-indol-1-yl)-ethylamino]-pyrimidin-4-yl}-2-methoxy-benzoic acid]: the IC50 against PTGER2 (EP2) is 15 nM; at PTRGER4 (EP4), 952 nM.

Turning to `COc1cc(-c2cc(NCCn3c(C)cc4c(OC)cccc43)ncn2)ccc1CO` [compound 36, (2-Methoxy-4-{6-[2-(4-methoxy-2-methyl-indol-1-yl)-ethylamino]-pyrimidin-4-yl}-phenyl)-methanol], the IC50 was 5 nM against PTGER2 (EP2) and 219 nM at PTRGER4 (EP4).

On to `Cc1ccc(F)c2c1cc(C)n2CCNc1cc(-c2ccc(S(=O)(=O)O)cc2)ncn1` [compound 37, 4-{6-[2-(7-Fluoro-2,4-dimethyl-indol-1-yl)-ethylamino]-pyrimidin-4-yl}-benzenesulfonic acid], for which the values for the IC50 at PTGER2 (EP2) and on PTRGER4 (EP4) were 34 nM and 436 nM, respectively.

As for `COc1cc(F)cc2c1cc(C)n2CCNc1cc(-c2cc(Cl)c(C(=O)O)s2)ncn1` [compound 38, 3-Chloro-5-{6-[2-(6-fluoro-4-methoxy-2-methyl-indol-1-yl)-ethylamino]-pyrimidin-4-yl}-thiophene-2-carboxylic acid], the IC50 stood at 5 nM against PTGER2 (EP2) and 39 nM against PTRGER4 (EP4).

On to `COc1cccc2c1cc(C)n2CCNc1cc(-c2ccc(NC(N)=O)cc2)ncn1` [compound 39, (4-{6-[2-(4-Methoxy-2-methyl-indol-1-yl)-ethylamino]-pyrimidin-4-yl}-phenyl)-urea], for which the IC50 was 19 nM against PTGER2 (EP2) and 515 nM against PTRGER4 (EP4).

Consider `Cc1ccc(F)c2c1cc(C)n2CCNc1cc(-c2ccc(NC(N)=O)cc2)ncn1` [compound 40, (4-{6-[2-(7-Fluoro-2,4-dimethyl-indol-1-yl)-ethylamino]-pyrimidin-4-yl}-phenyl)-urea], for which the IC50 against PTGER2 (EP2) came out at 86 nM; on PTRGER4 (EP4), 392 nM.

In the case of `Cc1ccc(F)c2c1cc(C)n2CCNc1cc(-c2ccc(C(=O)O)c(N)c2)ncn1` [compound 41], the IC50 came to 101 nM on PTGER2 (EP2) and 91 nM against PTRGER4 (EP4).

As for `COc1ccc(F)c2c1cc(C)n2CCNc1cc(-c2ccc(C(N)=O)cc2)ncn1` [compound 42, 4-{6-[2-(7-Fluoro-4-methoxy-2-methyl-indol-1-yl)-ethylamino]-pyrimidin-4-yl}-benzamide], the values for the IC50 against PTGER2 (EP2) and against PTRGER4 (EP4) were 21 nM and 494 nM, respectively.

Take `Cc1cc2c(Cl)cc(Cl)cc2n1CCNc1cc(-c2cc(Cl)c(C(=O)O)s2)ncn1` [compound 44]: the IC50 was 5 nM at PTGER2 (EP2) and 240 nM at PTRGER4 (EP4).

As for `Cc1cc(-c2cc(NCCn3c(C)cc4c(C)ccc(F)c43)ncn2)sc1C(=O)O` [compound 45], the half-maximal inhibitory concentration (IC50) is 14 nM on PTGER2 (EP2) and 75 nM at PTRGER4 (EP4).

As for `Cc1cc2c(Cl)ccc(F)c2n1CCNc1cc(-c2ccc(C(=O)O)cc2)ncn1` [compound 46], the IC50 against PTGER2 (EP2) stood at 29 nM; against PTRGER4 (EP4), 970 nM.

Turning to `Cc1ccc(F)c2c1cc(C)n2CCNc1cc(-c2cc(F)c(C(=O)O)s2)ncn1` [compound 47], the results for the IC50 at PTGER2 (EP2) and against PTRGER4 (EP4) were 18 nM and 136 nM, respectively.
